Details: intranasal 0.05% or 0.1% nasal spray; after first dose (Day 1) and last dose (Day 14); 43 subjects
Experimental: Each group started with approximately 190 subjects.
Plasma epinastine levels following intranasal administration were determined.

NC1=NCC2c3ccccc3Cc3ccccc3N12 (stereo not shown) [epinastine, 3-amino-9,13b-dihydro-1H-dibenz-[c,-f]imidazol[1,5-a]azepine]
Plasma concentrations of epinastine: < 1 ng/mL

From patent publication US7378082B1, “Method for treating allergic rhinitis without adverse effects” (Inspire Pharmaceuticals, Inc., priority 2007, dated 2008)
